# From PMC3261798, “Design, Synthesis, and Biological Evaluation of PKD Inhibitors” (Pharmaceutics, 2011)
# Tests used:
# PKD1 [1] = molecular target: T1, PKD1 (Homo sapiens, UniProt Q15139); assay: In vitro radiometric PKD kinase activity assay; type: biochemical; design: purchased Biomol International; details: for inhibitory activity against PKD (in words): preliminary biological data for kmg-NB5-13 and kmg-NB5-15; for fold improvement in PKD1 potency over CID755673: relative to parent CID755673
# T1 sequence (Q15139 1-912): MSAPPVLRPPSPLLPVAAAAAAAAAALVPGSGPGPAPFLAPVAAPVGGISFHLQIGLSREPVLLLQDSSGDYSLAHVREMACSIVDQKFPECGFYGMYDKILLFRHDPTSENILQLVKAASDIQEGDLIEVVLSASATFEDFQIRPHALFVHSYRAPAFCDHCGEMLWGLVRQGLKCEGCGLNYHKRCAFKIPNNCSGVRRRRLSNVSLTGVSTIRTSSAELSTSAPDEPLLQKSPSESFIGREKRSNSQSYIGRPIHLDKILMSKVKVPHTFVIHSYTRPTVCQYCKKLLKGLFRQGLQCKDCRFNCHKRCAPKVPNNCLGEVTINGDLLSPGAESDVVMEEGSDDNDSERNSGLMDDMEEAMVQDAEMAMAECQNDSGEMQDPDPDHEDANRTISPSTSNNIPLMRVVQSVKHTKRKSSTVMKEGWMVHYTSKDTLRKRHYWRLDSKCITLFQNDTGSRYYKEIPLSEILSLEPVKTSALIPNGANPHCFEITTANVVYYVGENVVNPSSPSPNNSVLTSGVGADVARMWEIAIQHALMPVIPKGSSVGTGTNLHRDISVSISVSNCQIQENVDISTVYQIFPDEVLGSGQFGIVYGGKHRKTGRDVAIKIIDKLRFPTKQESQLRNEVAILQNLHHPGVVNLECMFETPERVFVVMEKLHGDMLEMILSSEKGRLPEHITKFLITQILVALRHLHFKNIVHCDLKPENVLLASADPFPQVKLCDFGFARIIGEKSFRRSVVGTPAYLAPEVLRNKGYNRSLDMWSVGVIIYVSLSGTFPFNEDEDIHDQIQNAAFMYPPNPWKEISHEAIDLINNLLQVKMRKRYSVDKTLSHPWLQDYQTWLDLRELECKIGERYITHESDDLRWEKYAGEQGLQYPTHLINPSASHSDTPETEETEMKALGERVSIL
# Method: In vitro radiometric PKD kinase assays were conducted as previously described. Briefly, 50 ng recombinant human PKD1 (Biomol International, Plymouth Meeting, PA, USA) was incubated at 30 °C for 10 min with a reaction mixture containing 2.5 μg syntide-2 (Sigma), 70 μM ATP, and 1 μCi γ-^32 P-ATP (PerkinElmer, Boston, MA, USA) in kinase buffer (50 mM Tris-HCl pH 7.5, […], and 10 mM […]). 25 μL of the reaction mixture was then spotted on Whatman P81 filter paper (Whatman Inc., Clifton, NJ, USA), and filter papers were washed three times with 0.5% phosphoric acid, dried, then counted using a Beckman LS6500 multi-purpose scintillation counter.
# PKD1 [2] = molecular target: T1, PKD1; assay: % PKD1 activity at 1 μM (single concentration; assay format not stated); type: biochemical; details: compound at 1 μM
# PKD1 [3] = molecular target: T1, PKD1; assay: Cellular PKD1 inhibition: densitometry of Western blots for PKD1 autophosphorylation at S916 in PMA-stimulated LNCaP cells; type: cell-based; details: for EC50: PMA-induced autophosphorylation of endogenous PKD1 in LNCaP prostate cancer cells; for fold improvement in cellular activity over CID755673: cellular EC50 relative to CID755673
# Method: Inhibition of PKD 1 in cells was determined by densitometry analysis of Western blotting data for PKD1 autophosphorylation at Ser^916 in LNCaP cells as previously described. LNCaP cells were pre-treated with PKD inhibitors for 45 min at various concentrations, and then stimulated with 10 nM phorbol 12-myristate 13-acetate (PMA) for 20 min. Cells were then collected and lysed in lysis buffer containing 200 mM Tris-HCl, pH 7.4, 100 μM 4-(2-aminoethyl) benzenesulfonyl fluoride, 1 mM EGTA, and 1% Triton X-100. Cell lysates were probed by Western blot analysis using primary antibodies targeting p-S916-PKD1 (Millipore), PKD1 (Cell Signaling Technology), or GAPDH. Densitometry analysis of visualized bands was used to determine the cellular IC50 values for PKD1 inhibition.
# all PKD isoforms = details: cited from earlier work
# Aqueous solubility = type: physicochemical; details: aqueous medium with lipophilic solubilizing agents; even in the presence of lipophilic solubilizing agents
# PKD1 [4] = molecular target: T1, PKD1; assay: IMAP-based PKD Fluorescence Polarization (FP) assay, automated HTS format; type: biochemical; details: mean ± SEM, n = number of independent experiments
# Method: An automated, HTS formatted IMAP-based PKD Fluorescence Polarization (FP) assay was used to assess the specificity of the PKD analogs as previously described. […] Kinase reactions were incubated for 90 min at room temperature and stopped by the addition of IMAP binding reagent. Assay plates were then incubated for 2 h and IMAP-based FP data were captured on a Molecular Devices Spectra-Max M5 (Sunnyvale, CA, USA).
# [5] = Preliminary in vivo studies (plasma half-life, metabolism; data not shown); details: for plasma half-life: preliminary in vivo studies, data not shown
# [6] = Stability in protic solvents; type: physicochemical; details: attributed to nucleophilic attack at C-4 of the pyrimidine
# [7] = mean ± SEM, n = number of independent experiments, read-out: IC50 Radiometric PKD1
# [8] = PKD1 autophosphorylation at S916 in LNCaP cells, mean ± SEM
compound,measurement,setting,value
"O=C1NCCCSc2c1sc1ccc(O)cc21 [kb-NB165-92, 2,3,4,5-Tetrahydro-10-hydroxybenzo[b]thieno[2,3-f]-1,5-thiazocin-6-one]",IC50,PKD1 [1]; [7],110 ± 10 nM
same,remaining activity at 1 µM,PKD1 [2],16.7%
same,IC50,PKD1 [3]; [8],2560 ± 660 nM
NC(=O)c1cc(-c2ccnc(NC3CCCCC3)c2)nc(N2CCNCC2)c1 [BPKDi],"IC50 values, all three isoforms of PKD",all PKD isoforms,single digit nanomolar
"COc1ncc2sc3c(c2n1)SCCNC3=O [kmg-NB4-23, 2-Methoxy-7H,8H,9H-1,4-thiazepino [7′,6′-5,4]thiopheno[3,2-d]pyrimidin-6-one]",IC50,"PKD1 [1]; in vitro, read-out: PKD1 IC50",124 nM
same,IC50,PKD1 [1]; [7],120 ± 30 nM
same,inhibitory activity against PKD (in words),PKD1 [1],potent nanomolar inhibitor
same,melting point,,308 °C (dec.)
same,solubility,Aqueous solubility,< 400 µg/mL
same,IC50,PKD1 [3]; [8],6800 ± 1300 nM
"O=C1NCCSc2c1sc1ccc(O)c(I)c21 [kb-NB165-31, 3,4-Dihydro-9-hydroxy-10-iodo-[1]benzothieno[2,3-f]-1,4-thiazepin-5(2H)-one]",IC50,"PKD1 [1]; in vitro, read-out: PKD1 IC50",114 nM
same,IC50,PKD1 [1]; [7],110 ± 20 nM
same,remaining activity at 1 µM,PKD1 [2],13.6%
same,melting point,,128 °C (dec.)
same,fold lower cellular activity than kb-NB142-70,PKD1 [3]; relative to kb-NB142-70,4 fold
"O=C1NCCCc2c1oc1ccc(O)cc21 [CID755673, 7-Hydroxy-2,3,4,5-tetrahydro-[1]benzoxolo[2,3-c]azepin-1-one]",IC50,PKD1 [1]; [7],180 ± 20 nM
same,IC50,all PKD isoforms,200 to 300 nM
same,IC50,PKD1 [4],640 ± 30 nM
same,IC50,PKD1 [3]; [8],11800 ± 4000 nM
same,EC50,PKD1 [3],11800 nM
"O=C1NCCCc2c1[nH]c1ccc(O)cc21 [kb-NB123-57, 3,4,5,10-Tetrahydro-7-hydroxy-azepino[3,4-b]indol-1(2H)-one]",IC50,PKD1 [1]; [7],130 ± 10 nM
same,IC50,PKD1 [4],2140 ± 120 nM
same,IC50 Cellular PKD1,PKD1 [3]; [8],no significant cellular activity
"COc1ccc2sc3c(c2c1)SCCNC3=O [kb-NB165-09, 3,4-Dihydro-9-methoxy-[1]benzothieno[2,3-f]-1,4-thiazepin-5(2H)-one]",IC50,PKD1 [1]; [7],80 ± 10 nM
same,fold improvement in PKD1 potency over CID755673,PKD1 [1],ca. 7 fold
same,plasma half-life,[5],short
same,IC50,PKD1 [3]; [8],3130 ± 540 nM
same,EC50,PKD1 [3],3100 nM
same,fold improvement in cellular activity over CID755673,PKD1 [3],ca. 5 fold
"O=C1NCCSc2c1sc1cnc(O)nc21 [kmg-NB4-69A, 2-Hydroxy-7H,8H,9H-1,4-thiazepino[7′,6′-5,4]thiopheno[3,2-d]pyrimidin-6-one]",IC50,PKD1 [1]; [7],25300 nM
same,inhibitory activity against PKD (in words),PKD1 [1],only weak inhibitory effect
same,stability in protic solvents,[6],spontaneously degrades in protic solvents
"O=C1NCCSc2c1sc1ccc(O)cc21 [kb-NB142-70, 3,4-Dihydro-9-hydroxy-[1]benzothieno[2,3-f]-1,4-thiazepin-5(2H)-one]",IC50,PKD1 [1]; [7],28 ± 2 nM
same,fold improvement in PKD1 potency over CID755673,PKD1 [1],~7 fold
same,plasma half-life,[5],short
same,major metabolic pathway,[5]; preliminary results from an animal model,glucuronidation of kb-NB142-70 at the phenolic position to be a major metabolic pathway
same,IC50,PKD1 [4],710 ± 20 nM
same,IC50,PKD1 [3]; [8],2220 ± 590 nM
same,EC50,PKD1 [3],2200 nM
same,fold improvement in cellular activity over CID755673,PKD1 [3],ca. 5 fold
C[C@H](C#N)Nc1cccc(-c2cc(-c3ccc(CNC4CCOCC4)cc3)on2)c1 [Compound 2b],"IC50s, all PKD isoforms",all PKD isoforms,low nanomolar
same,fold preference for PKD1 versus PKD2,all PKD isoforms,9 fold
same,fold preference for PKD1 versus PKD3,all PKD isoforms,3 fold
CC[C@@H](N)CNc1ccnc(-c2cc(-c3cnn(C)c3)ccc2O)n1.Cl.Cl [CRT0066101],"IC50s, all isoforms of PKD",all PKD isoforms,single-digit nanomolar
